Laboratory results from ChEMBL document CHEMBL1201862, “PubChem BioAssay data set” (2004).
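1) Cells in 96-well plates. 2) Compound, 48 h, 5 concentrations. 3) Linear interpolation between surrounding doses. 4) Unreached endpoint = highest concentration. GI50: concentration for 50% inhibition of growth.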 Activity calls are given as the source filed them. Cut-off read from the data, not from the text of the source: active = GI50 up to about 1.1 µM and inactive = higher.

Columns and labels:
Test in all cases: DTP human tumour cell line panel, 48 h
SK-MEL-2 = tested on: SK-MEL-2
SF-268 = tested on: SF-268
A549 = tested on: A549
HOP-62 = tested on: HOP-62
UO-31 = tested on: UO-31
MOLT-4 = tested on: MOLT-4
OVCAR-8 = tested on: OVCAR-8
UACC-257 = tested on: UACC-257
SK-MEL-28 = tested on: SK-MEL-28
HL-60 = tested on: HL-60
NCI-H23 = tested on: NCI-H23
NCI/ADR-RES = tested on: NCI/ADR-RES
HOP-92 = tested on: HOP-92
PC-3 = tested on: PC-3
OVCAR-4 = tested on: OVCAR-4
TK-10 = tested on: TK-10
T47D = tested on: T47D
OVCAR-3 = tested on: OVCAR-3
BT-549 = tested on: BT-549
M14 = tested on: M14
OVCAR-5 = tested on: OVCAR-5
SF-295 = tested on: SF-295
HCC 2998 = tested on: HCC 2998
LOX IMVI = tested on: LOX IMVI
SF-539 = tested on: SF-539
U-251 = tested on: U-251
RPMI-8226 = tested on: RPMI-8226
SR = tested on: SR
MCF7 = tested on: MCF7
K562 = tested on: K562
A498 = tested on: A498
HCT-116 = tested on: HCT-116
DU-145 = tested on: DU-145
MDA-MB-435 = tested on: MDA-MB-435
NCI-H226 = tested on: NCI-H226
ACHN = tested on: ACHN
786-0 = tested on: 786-0
KM12 = tested on: KM12
SNB-75 = tested on: SNB-75
SW-620 = tested on: SW-620
MDA-N = tested on: MDA-N
Hs-578T = tested on: Hs-578T
NCI-H460 = tested on: NCI-H460
CAKI-1 = tested on: CAKI-1
HCT-15 = tested on: HCT-15
IGROV-1 = tested on: IGROV-1
EKVX = tested on: EKVX
NCI-H522 = tested on: NCI-H522
RXF 393 = tested on: RXF 393
HT-29 = tested on: HT-29
MDA-MB-231 = tested on: MDA-MB-231
SK-MEL-5 = tested on: SK-MEL-5
SK-OV-3 = tested on: SK-OV-3
COLO 205 = tested on: COLO 205
UACC-62 = tested on: UACC-62
SN12C = tested on: SN12C
CCRF-CEM = tested on: CCRF-CEM
SNB-19 = tested on: SNB-19

With `CC1(C)OCC([C@H]2O[C@@H](CC(=S)NCCCCCCCCCCCCNC(=S)C[C@H]3O[C@@H](C4COC(C)(C)O4)[C@H]4OC(C)(C)O[C@H]43)[C@H]3OC(C)(C)O[C@H]32)O1` (stereo partly drawn) the GI50 (SK-MEL-2) was 58.5 µM (inactive), the GI50 (SF-268) was > 100 µM (inactive) and the GI50 (A549) was 14.7 µM (inactive). The GI50 (HOP-62) was > 100 µM (inactive), the GI50 (UO-31) was 19 µM (inactive) and the GI50 (MOLT-4) was 15.8 µM (inactive). For the same compound, the GI50 (OVCAR-8) was 53.5 µM (inactive), the GI50 (UACC-257) was 42.5 µM (inactive) and the GI50 (SK-MEL-28) was > 100 µM (inactive). For the same compound, the GI50 (HL-60) was 30.4 µM (inactive), the GI50 (NCI-H23) was 30.7 µM (inactive) and the GI50 (NCI/ADR-RES) was 25.9 µM (inactive). The GI50 (HOP-92) was > 100 µM (inactive), the GI50 (PC-3) was 25.5 µM (inactive) and the GI50 (OVCAR-4) was 43.3 µM (inactive). The GI50 (TK-10) was > 100 µM (inactive), the GI50 (T47D) was 19.2 µM (inactive) and the GI50 (OVCAR-3) was 74.5 µM (inactive). For the same compound, the GI50 (BT-549) was 35 µM (inactive), the GI50 (M14) was 52.5 µM (inactive) and the GI50 (OVCAR-5) was > 100 µM (inactive). For the same compound, the GI50 (SF-295) was 31.6 µM (inactive), the GI50 (HCC 2998) was 75.7 µM (inactive) and the GI50 (LOX IMVI) was 79.1 µM (inactive). For the same compound, the GI50 (SF-539) was 57.9 µM (inactive), the GI50 (U-251) was 35 µM (inactive) and the GI50 (RPMI-8226) was 15.7 µM (inactive). The GI50 (SR) was 34.8 µM (inactive), the GI50 (MCF7) was 24.4 µM (inactive) and the GI50 (K562) was 39.4 µM (inactive). For the same compound, the GI50 (A498) was 11.9 µM (inactive), the GI50 (HCT-116) was 35.7 µM (inactive) and the GI50 (DU-145) was > 100 µM (inactive). The GI50 (MDA-MB-435) was 70.8 µM (inactive), the GI50 (NCI-H226) was > 100 µM (inactive) and the GI50 (ACHN) was 49.3 µM (inactive). The GI50 (786-0) was 83.8 µM (inactive), the GI50 (KM12) was 48.6 µM (inactive) and the GI50 (SNB-75) was > 100 µM (inactive). For the same compound, the GI50 (SW-620) was > 100 µM (inactive), the GI50 (MDA-N) was 58.5 µM (inactive) and the GI50 (Hs-578T) was > 100 µM (inactive). For the same compound, the GI50 (NCI-H460) was 25.6 µM (inactive), the GI50 (CAKI-1) was 17.5 µM (inactive) and the GI50 (HCT-15) was 73.1 µM. The GI50 (IGROV-1) was > 100 µM (inactive), the GI50 (EKVX) was 49.9 µM (inactive) and the GI50 (NCI-H522) was 45.3 µM (inactive). For the same compound, the GI50 (RXF 393) was > 100 µM (inactive), the GI50 (HT-29) was 45.7 µM (inactive) and the GI50 (MDA-MB-231) was > 100 µM (inactive). The GI50 (SK-MEL-5) was 23.7 µM (inactive).
`CCOC(=O)c1csc(-c2cn(C)c3c2C(=O)C(OC)=CC3=O)n1` was tested, and the GI50 (SK-MEL-2) was 21.7 µM (inactive), the GI50 (SK-OV-3) was 69 µM (inactive) and the GI50 (SF-268) was > 62.5 µM (inactive). For the same compound, the GI50 (A549) was 17.8 µM (inactive), the GI50 (HOP-62) was 23.2 µM (inactive) and the GI50 (UO-31) was 44.4 µM (inactive). For the same compound, the GI50 (COLO 205) was 26.9 µM (inactive), the GI50 (MOLT-4) was > 100 µM (inactive) and the GI50 (OVCAR-8) was 45.2 µM (inactive). The GI50 (UACC-257) was 21.6 µM (inactive), the GI50 (SK-MEL-28) was 32.6 µM (inactive) and the GI50 (HL-60) was 13 µM (inactive). The GI50 (NCI-H23) was 11.3 µM (inactive), the GI50 (NCI/ADR-RES) was 22.5 µM (inactive) and the GI50 (UACC-62) was 21.2 µM (inactive). The GI50 (SN12C) was > 75.2 µM (inactive), the GI50 (HOP-92) was 40.5 µM (inactive) and the GI50 (PC-3) was 21.4 µM (inactive). For the same compound, the GI50 (OVCAR-4) was 42.8 µM (inactive), the GI50 (TK-10) was > 100 µM (inactive) and the GI50 (T47D) was > 95.1 µM (inactive). For the same compound, the GI50 (OVCAR-3) was 5.82 µM (inactive), the GI50 (BT-549) was > 40.3 µM (inactive) and the GI50 (M14) was 14 µM (inactive). For the same compound, the GI50 (OVCAR-5) was 31.1 µM (inactive), the GI50 (SF-295) was 25 µM (inactive) and the GI50 (HCC 2998) was 23.8 µM (inactive). For the same compound, the GI50 (LOX IMVI) was 2.6 µM (inactive), the GI50 (SF-539) was 27.6 µM (inactive) and the GI50 (CCRF-CEM) was 72.8 µM (inactive). The GI50 (U-251) was 15.4 µM (inactive), the GI50 (RPMI-8226) was 9.53 µM (inactive) and the GI50 (SR) was > 53.5 µM (inactive). For the same compound, the GI50 (MCF7) was 7.6 µM (inactive), the GI50 (K562) was 21.6 µM (inactive) and the GI50 (A498) was 24.3 µM (inactive). For the same compound, the GI50 (HCT-116) was 18.3 µM (inactive), the GI50 (DU-145) was 6.05 µM (inactive) and the GI50 (MDA-MB-435) was 3.27 µM (inactive). The GI50 (NCI-H226) was > 83 µM (inactive), the GI50 (ACHN) was 34.8 µM (inactive) and the GI50 (786-0) was > 100 µM (inactive). For the same compound, the GI50 (KM12) was 20 µM (inactive), the GI50 (SNB-75) was 30.3 µM (inactive) and the GI50 (SW-620) was 55.2 µM (inactive). The GI50 (MDA-N) was 15.6 µM (inactive), the GI50 (Hs-578T) was 21.2 µM (inactive) and the GI50 (NCI-H460) was 8.73 µM (inactive). For the same compound, the GI50 (CAKI-1) was > 91.2 µM (inactive), the GI50 (HCT-15) was 9.75 µM and the GI50 (IGROV-1) was > 46.1 µM (inactive). For the same compound, the GI50 (EKVX) was > 86.3 µM (inactive), the GI50 (SNB-19) was 14.2 µM (inactive) and the GI50 (NCI-H522) was 36.6 µM (inactive). For the same compound, the GI50 (RXF 393) was 23.6 µM (inactive), the GI50 (HT-29) was 48.2 µM (inactive) and the GI50 (MDA-MB-231) was 18.3 µM (inactive). The GI50 (SK-MEL-5) was 3.91 µM (inactive).
In the case of `C=CCC(CNC(=O)OCc1ccccc1)O[Si](C)(C)C(C)(C)C` (stereo not drawn), the GI50 (SK-MEL-2) is reported as 16.6 µM (inactive), the GI50 (SK-OV-3) is reported as 61.5 µM (inactive) and the GI50 (SF-268) is reported as 45.3 µM (inactive). The GI50 (A549) was 30.1 µM (inactive), the GI50 (HOP-62) was 38.5 µM (inactive) and the GI50 (UO-31) was 22.2 µM (inactive). For the same compound, the GI50 (COLO 205) was 16.6 µM (inactive), the GI50 (MOLT-4) was 19.6 µM (inactive) and the GI50 (OVCAR-8) was 45.3 µM (inactive). The GI50 (UACC-257) was 25.4 µM (inactive), the GI50 (SK-MEL-28) was 48 µM (inactive) and the GI50 (HL-60) was 20.1 µM (inactive). The GI50 (NCI-H23) was 55.5 µM (inactive), the GI50 (NCI/ADR-RES) was 36.9 µM (inactive) and the GI50 (UACC-62) was 23.2 µM (inactive). The GI50 (SN12C) was 31.2 µM (inactive), the GI50 (HOP-92) was 26.2 µM (inactive) and the GI50 (PC-3) was 30.3 µM (inactive). The GI50 (OVCAR-4) was 46.7 µM (inactive), the GI50 (TK-10) was 74.5 µM (inactive) and the GI50 (T47D) was 22.9 µM (inactive). For the same compound, the GI50 (OVCAR-3) was 31.6 µM (inactive), the GI50 (BT-549) was 55 µM (inactive) and the GI50 (M14) was 26.4 µM (inactive). The GI50 (OVCAR-5) was 26.3 µM (inactive), the GI50 (SF-295) was 35.2 µM (inactive) and the GI50 (HCC 2998) was 39.5 µM (inactive). The GI50 (LOX IMVI) was 23.4 µM (inactive), the GI50 (SF-539) was 28.5 µM (inactive) and the GI50 (CCRF-CEM) was 28.3 µM (inactive). For the same compound, the GI50 (U-251) was 25.6 µM (inactive), the GI50 (RPMI-8226) was 20 µM (inactive) and the GI50 (SR) was 18.5 µM (inactive). For the same compound, the GI50 (MCF7) was 22.3 µM (inactive), the GI50 (K562) was 23.6 µM (inactive) and the GI50 (A498) was 38.8 µM (inactive). The GI50 (HCT-116) was 20.8 µM (inactive), the GI50 (DU-145) was 36.5 µM (inactive) and the GI50 (MDA-MB-435) was 38.5 µM (inactive). For the same compound, the GI50 (NCI-H226) was 25.9 µM (inactive), the GI50 (ACHN) was 33.6 µM (inactive) and the GI50 (786-0) was 29.4 µM (inactive). The GI50 (KM12) was 34 µM (inactive), the GI50 (SNB-75) was 59.3 µM (inactive) and the GI50 (SW-620) was 38.1 µM (inactive). For the same compound, the GI50 (MDA-N) was 34.8 µM (inactive), the GI50 (Hs-578T) was 45.2 µM (inactive) and the GI50 (NCI-H460) was 25.6 µM (inactive). The GI50 (CAKI-1) was 29.4 µM (inactive), the GI50 (HCT-15) was 35.9 µM and the GI50 (IGROV-1) was 27.4 µM (inactive). For the same compound, the GI50 (EKVX) was 25.4 µM (inactive), the GI50 (SNB-19) was 40.3 µM (inactive) and the GI50 (NCI-H522) was 24.9 µM (inactive). The GI50 (RXF 393) was 17.3 µM (inactive), the GI50 (HT-29) was 18 µM (inactive) and the GI50 (MDA-MB-231) was 17.3 µM (inactive). For the same compound, the GI50 (SK-MEL-5) was 16.6 µM (inactive).
